Data as given in US10183036B2, “Use of nicotinic acid riboside or nicotinamide riboside derivatives, and reduced derivatives thereof, as NAD+ increasing precursors” (Chromadex Inc., priority 2016, dated 2019).

What was measured:
[1] = tested on: Hela cells; test: NAD content in cultured Hela cells supplemented with NAD+ precursor (EnzyChrom NAD+/NADH assay kit); assay type: cell-based; conditions: 100 μM precursor, 24 h at 37° C., control = 100.0; for activity at 100 µM: Homo sapiens
Protocol: Hela cells (passages 5-9) were grown in cell culture medium DMEM with 10% serum and were seeded in 6-well plates with a density of 3×10^5 cells per well containing 1 ml of culture medium overnight. The wells were aspirated, washed with PBS and 2 mL of fresh cell culture media was added. […] The media was aspirated and the wells washed with PBS, and for each condition 1×10^5 cells were isolated and analyzed using an ENZYCHROM™ NAD+/NADH ASSAY KIT (E2ND-100) following the manufacturer protocol (BioAssay Systems, Hayward, Calif.). This standard assay provides a quantitative colorimetric determination of NAD+/NADH at 565 nm.
Further, FIG. 9 presents the same data as a fold-increase in NAD over control. FIG. 8 presents a measurement of absolute NAD values (μM) in Hela cells (n=4) cultured in growth media supplemented with 100 μM of the corresponding NAD^+ precursor (nicotinyl riboside test compound) for 24 hours, versus control (NAD content in cells measured in the absence of treatment compound). A control value was determined for each replicate data set.

[2] = tested on: cells; conditions: Kulikova et al. 2015; cited from earlier work
[3] = Stability in aqueous solution at various temperature and pH; assay type: physicochemical
Protocol: Nicotinamide riboside (NR) was prepared in 1000 ppm aqueous solution (w/v) at 2.5, 3.5 and 4.7 pH levels. Nicotinic acid riboside (NAR) was prepared n 1000 ppm aqueous solution (w/v) at 2.5, 3.5 and 6.2 pH levels. The six sample solutions were aliquoted into various small sealed vials to be used as individual sample pull points for analysis.

SMILES: CC(=O)OC[C@H]1O[C@@H]([n+]2cccc(C(=O)O)c2)[C@H](OC(C)=O)[C@@H]1OC(C)=O [NAR TA, 1-(2′,3′,5′-triacetyl-beta-D-ribofuranosyl)-nicotinic acid]
- activity at 100 µM [1]: 173%

SMILES: NC(=O)c1ccc[n+]([C@@H]2O[C@H](CO)[C@@H](O)[C@H]2O)c1 [NR, Nicotinamide riboside]
- activity at 100 µM [1]: 141%
- amount required to maintain viability relative to NAR [2]: 10 times

SMILES: O=C(O)c1ccc[n+]([C@@H]2O[C@H](CO)[C@H](O)[C@H]2O)c1 [NAR, Nicotinic acid riboside]
- activity at 100 µM [1]: 295%
- assay (concentration remaining) after storage ([3]; 1000 ppm aqueous solution, 4° C., after 140 days): greater than 95%
- stability in comparison to NR ([3]; aqueous solution, 4° C. and 25° C., all measured pH levels): much greater stability
- stability over time in weeks ([3]; aqueous solution, higher temperature and lower pH): markedly decreased
- concentration that supports cell survival [2]: about 1 micromolar

SMILES: CC(=O)O[C@@H]1[C@@H](COC(=O)c2cccnc2)OC(=O)[C@@H]1OC(C)=O [cyclic, 2′,3′-diacetyl-5′-nicotinoyl ribolactone]
- NAD % vs control [1]: 178.0%

SMILES: O=C(O)C1=CN([C@@H]2O[C@H](CO)[C@@H](O)[C@H]2O)C=CC1 [NARH, 1-(beta-D-ribofuranosyl)-1,4-dihydronicotinic acid]
- activity at 100 µM [1]: 147%

SMILES: CC(=O)OC[C@H]1O[C@@H]([n+]2cccc(C(N)=O)c2)[C@H](OC(C)=O)[C@@H]1OC(C)=O [NR TA, 1-(2′,3′,5′-triacetyl-beta-D-ribofuranosyl)-nicotinamide]
- activity at 100 µM [1]: 199%

SMILES: CC(=O)OC[C@H]1O[C@@H](N2C=CCC(C(N)=O)=C2)[C@H](OC(C)=O)[C@@H]1OC(C)=O [NRH TA, 1-(2′,3′,5′-triacetyl-beta-D-ribofuranosyl)-1,4-dihydronicotinamide]
- activity at 100 µM [1]: 146%
